Results on one compound are retold here after paper PMC7568863 (Chemical biology & drug design, 2020).

One test has as its system Bfl-1. The following applies: ref Barile et al., 2017; cited from earlier work.
Test [1] deals with SKMEL28 melanoma cell line. Nature of the test: Cell apoptosis assay. Type of test: cell-based. To be noted: IncuCyte Cytotox Green, Total Green Object Integrated Intensity; 30 h post-treatment; triplicates; preliminary assay.

Molecules are shown by their SMILES.

As for `CC1(C)CCC(CN2CCN(c3ccc(C(=O)NS(=O)(=O)c4ccc(NCC5CCOCC5)c([N+](=O)[O-])c4)c(Oc4cnc5[nH]ccc5c4)c3)CC2)=C(c2ccc(Cl)cc2)C1` [ABT199], in the test with Bfl-1, the “Activity against Bfl-1” value was “inactive against Bfl-1”. The “Induction of apoptosis / cell death in SKMEL28 cells” value in test [1] is “inactive at the concentrations tested”.
